Article PMC9851200, “Multiparameter phenotypic screening for endogenous TFEB and TFE3 translocation identifies novel chemical series modulating lysosome function” (Autophagy, 2022)
Like-named read-outs stand apart in the source and are kept apart here.

What was measured:
Conditions in all cases: PKIS2 primary screening
endogenous TFEB = experiment: TFEB nuclear translocation, immunocytochemistry high-content imaging; type: cell-based
endogenous TFE3 = experiment: TFE3 nuclear translocation, immunocytochemistry high-content imaging; type: cell-based
SH-SY5Y cells [1] = tested on: SH-SY5Y cells; further: reference of the scale not given here
SH-SY5Y cells [2] = experiment: AK (adenylate kinase) release ToxiLight cytotoxicity assay; further: reference of the scale not given here
SH-SY5Y cells [3] = experiment: Nuclear count from microscopy images (cellular growth and toxicity); further: reference of the scale not given here

| SMILES | TFEB % (endogenous TFEB) [%] | TFE3 % (endogenous TFE3) [%] | DQ Intensity (SH-SY5Y cells [1]; DQ Red BSA intensity) | DQ Spot (SH-SY5Y cells [1]; DQ Red BSA spot count) | AK (SH-SY5Y cells [2]) | Nuclear Count (SH-SY5Y cells [3]) | DQ Intensity (SH-SY5Y cells [1]) | DQ Spot (SH-SY5Y cells [1]) |
| --- | --- | --- | --- | --- | --- | --- | --- | --- |
| CS(=O)(=O)CCNCc1nc(-c2ccc3ncnc(Nc4ccc(OCc5cccc(F)c5)c(Cl)c4)c3c2)cs1.Cl [UNC10225091A] | 5.83 | 9.84 | 63.39 | 82.01 | 98.46 | 114.33 |  |  |
| Nc1cccc(-c2ccc3c(N)n[nH]c3c2)c1 [GSK2193613] | 4.96 | 9.08 | 55.67 | 76.28 | 94.13 | 112.12 |  |  |
| COc1cc2ncn(-c3cc(OCc4sccc4Cl)c(C(N)=O)s3)c2cc1OC [UNC10225153A] | 9.72 | 30.18 |  |  | 134.16 | 49.58 | 186.81 | 134.42 |
| COc1ccc(CNC(=O)NC2CCN(c3ccnc(Nc4ccc(F)cc4)n3)CC2)cc1 [GSK1379788] | 3.80 | 14.89 | 86.32 | 97.11 | 114.99 | 82.62 |  |  |
| COc1cc(Nc2nccc(-c3c(-c4cccc(NC(=O)c5c(F)cccc5F)c4)nn4ncccc34)n2)cc(OC)c1OC [UNC10225433A] | 23.04 | 17.61 |  |  | 102.19 | 35.61 | 122.13 | 59.34 |
| CNc1nc(-c2ccc3c(N)n[nH]c3c2)cc(N2C[C@@H](C(=O)NC3CCCCC3)OC[C@H]2C)n1 [GSK2375584] | 4.51 | 6.46 | 111.29 | 104.60 | 76.99 | 127.70 |  |  |
| O=C(NC1CCN(c2ccnc(Nc3ccc(F)cc3)n2)C1)c1cc2ccccc2s1 (stereo not drawn) [GSK1379716] | 2.96 | 24.94 | 72.95 | 96.75 | 79.19 | 86.00 |  |  |
| O=C(O)C(F)(F)F.O=C(O)C(F)(F)F.O=c1[nH]ccc2nc(N[C@@H]3CCCNC3)nc(Nc3ccc(S(=O)(=O)N4CCOCC4)cc3)c12 [UNC10225269A] | 8.33 | 12.97 |  |  | 88.07 | 106.18 | 101.94 | 104.22 |
| CCn1cnc2c(NCc3ccccc3)ncnc21 [UNC10225370A] | 4.85 | 13.91 |  |  | 79.45 | 102.90 | 98.37 | 103.57 |
| Cc1ccc(NC(=O)Nc2cccc(Cl)c2)cc1-c1ccc(C(=O)Nc2ccncc2)cc1 [UNC10225019A] | 7.29 | 11.19 |  |  | 95.29 | 106.82 | 128.25 | 121.60 |
| COc1ccc(Nc2nccc(NCCNC(=O)Nc3cc(C)ccc3C)n2)cc1 [GSK1379899] | 7.12 | 15.31 | 123.56 | 108.96 | 79.47 | 88.82 |  |  |
| Nc1ncnc2c1ncn2-c1ccc(Cl)cc1 [UNC10225203A] | 5.10 | 14.23 |  |  | 145.27 | 80.96 | 65.28 | 88.83 |
| CS(=O)(=O)CCNCc1nc(-c2ccc3ncnc(Nc4ccc(OCc5ccccc5)c(Cl)c4)c3c2)cs1.Cl [UNC10225279B] | 5.66 | 17.30 | 82.64 | 92.63 | 96.76 | 87.19 |  |  |
| COc1cc2ncn(-c3cc(OCC4CCCO4)c(C(N)=O)s3)c2cc1OC (stereo not drawn) [UNC10225372A] | 6.13 | 10.50 |  |  | 162.91 | 102.24 | 86.61 | 87.29 |
| CCn1c(-c2c(N)noc2C)nc2cnccc21 [UNC10225095A] | 3.05 | 10.37 |  |  | 112.40 | 110.85 | 103.20 | 105.92 |
| CNc1nccc(-c2c(-c3ccc(F)cc3)ncn2C2CCN(C)CC2)n1 [UNC10225274A] | 7.89 | 15.08 |  |  | 126.95 | 122.34 | 105.02 | 100.15 |
| COC(=O)c1cccc(NC(=O)NC2CCN(c3ccnc(Nc4cc(OC)c(OC)c(OC)c4)n3)C2)c1 (stereo not drawn) [GSK1379767] | 5.97 | 6.50 | 85.74 | 95.59 | 115.43 | 122.32 |  |  |
| Cc1cc(NCC(c2ccccc2)c2ccccc2)nc(NCc2ccc(C(F)(F)F)cc2)n1 [GW497681] | 10.26 | 31.99 | 118.39 | 90.21 | 143.14 | 83.96 |  |  |
| COc1ccc(Nc2nccc(N3CCC(NC(=O)Nc4cccc(OC)c4)C3)n2)cc1 (stereo not drawn) [GSK1379742] | 8.93 | 16.87 | 119.16 | 99.38 | 126.78 | 103.65 |  |  |
| Cl.c1ccc(Cn2ncc3cc(Nc4ncnc5ccccc45)ccc32)cc1 [UNC10225085A] | 4.60 | 11.00 | 91.33 | 107.62 | 124.83 | 82.39 |  |  |
| NC(=O)c1cccc(Nc2nccc(Nc3ccc(Oc4c(Cl)cccc4Cl)c(Cl)c3)n2)c1 [GW659009] | 6.80 | 20.40 | 60.26 | 79.24 | 74.50 | 101.88 |  |  |
| CCOc1nccc(-c2c(-c3ccc(F)cc3)ncn2C2CCNCC2)n1 [UNC10225194A] | 5.88 | 13.41 |  |  | 122.01 | 127.90 | 81.72 | 85.28 |
| CN(C)c1cc(-c2ccc3c(N)n[nH]c3c2)nc(N)n1 [GSK2219329] | 4.04 | 13.03 | 87.81 | 98.17 | 83.85 | 85.79 |  |  |
| Cn1cc(-c2ccc3c(c2)CCN3C(=O)Cc2ccccc2Cl)c2c(N)ncnc21 [UNC10225172A] | 8.22 | 8.56 |  |  | 106.54 | 63.66 | 88.08 | 66.39 |
| CNc1ncnc2[nH]ncc12 [UNC10243862A] | 5.21 | 11.00 |  |  | 111.70 | 108.49 | 93.16 | 103.80 |
| CC(=O)N1CCN(c2ccc(Nc3nccc(-c4sc(C(C)C)nc4-c4cccc(NS(=O)(=O)c5cccc(Cl)c5)c4)n3)cn2)CC1 [UNC10225481A] | 3.72 | 9.55 |  |  | 73.54 | 128.41 | 100.90 | 115.22 |
